Data set [1] concerns porcine pancreatic lipase (PPL). The following applies: pig, 3 h, pH 11.5. From the text: Because many fatty acids are only partially ionised at pH 6.8, direct titration gives only partial picture of the extent of lipid digestion, instead back titration to pH 11.5 or GC-FAME analysis is required to estimate the full extent of digestion.
Data set [2] concerns rabbit gastric lipase (RGL) followed by porcine pancreatic lipase (PPL). Nature of the data set: Sequential in vitro digestion in simulated gastric fluid (SGF) followed by simulated intestinal fluid (SIF), pH-stat.
Method: 10 wt % oil in water emulsions stabilised by 0.3 wt % polyoxyethylene sorbitan mono-oleate (Tween® 80) were prepared by mixing the Tween 80 into the oil phase at 40° C., then mixing with the water phase using a magnetic stirrer. An emulsion was then created using a Hielscher UP 400S ultrasonic probe homogeniser equipped with a 5 mm diameter rod-like probe by applying 100% amplitude at 100% cycle for 2 minutes whilst the sample was cooled using ice water.
The lipid emulsion (2 mL) containing 200 mg of fat was subjected to gastrointestinal in vitro lipolysis. The digestions were conducted in thermostated glass vessels (37° C.) in a pH-STAT setup controlled by a TIM 856 bi-burette pH-STAT (Radiometer Analytical, France). For gastric digestion, the sample was incubated for 90 minutes with 8.5 mL of simulated gastric fluid (SGF), which consisted of 150 mM NaCl, 450 U/mL pepsin, 18 U/mL rabbit gastric lipase at 37° C. and a pH of 5.5.
The intestinal digestion step was performed in the pH stat where the pH was kept constant at 6.8 by addition of NaOH (0.05 M). A bile salt mixture (bile salts prepared with tris buffer, 5 mM tris, 150 mM NaCl) and calcium solution (20 mM Ca, 176 5 mM tris, 150 mM NaCl) were added to the SGF-sample mixture. This mixture was transferred to the pH-stat, where the pH was adjusted to approximately 6.78. The intestinal digestion step starts when the temperature reaches 37±0.5° C. The pH was adjusted to pH 6.8 and after incubation of two minutes at this pH and temperature, a pancreatin solution (5 mM tris, 150 mM NaCl at pH 6.8) was added. The final composition of the intestinal fluid was 10 mM CaCl2, 12 mM mixed bile salts, 0.75 mM phospholipid, 150 mM NaCl and 4 mM tris(hydroxymethyl)aminomethane buffer. The intestinal digestion step was carried out for 3 hours in a titration manager from Radiometer. During the intestinal phase of digestion, the kinetics of digestion were followed using a pH-stat (TIM856, Radiometer) technique and expressed as titratable acid (rather than fatty acid) that was calculated by the equation: […]

These results are taken from patent US20220195332A1, “DIETARY BUTYRATE AND ITS USES” (SOCIETE DES PRODUITS NESTLE S.A., priority 2019, published 2022).

In data set [1], `CCCC(=O)OCC(COC(=O)CCC)OC(=O)CCC` [tributyrin] returned an Extent of digestion of 101.5±0.9%. Further, the “Initial lipolysis rate in SIF compartment” value in data set [2] (SGF-SIF sequential digestion (90 minutes SGF pH 5.5, then SIF pH 6.8)) was 44.1 ± 8.8 µmol/min. Moreover, in data set [2] (indicated by decreased total fatty acid release during SIF after RGL pre-exposure), the “Lipolysis by gastric lipase” value is reported as approximately 60%. The “Hydrolysis in the stomach (gastric lipolysis), in words” value in data set [2] (simulated gastric compartment) is “extensive hydrolysis in the stomach”.
